Values quoted from earlier work in US7378114B2, “Method for producing soluble composition containing isoflavones” (Fuji Oil Company, Limited, priority 2001, dated 2008).

Settings: under 25° C.; according to the literature; per 100 g solvent

solubility in water: 0.002 to 0.003 g
Compound: O=c1c(-c2ccccc2)coc2ccccc12 [isoflavone]
